Test results from patent US20230340011A1 (Asteroid Therapeutics, priority 2022, published 2023).

Biological target: LXRβ (Homo sapiens (Human), UniProt P55055)
Assay: In vitro assay LXRβ: PathHunter NHR CHO cells, LXRβ / Steroid Receptor Co-activator Peptide enzyme fragment complementation
Format: cell-based
Details: PathHunter NHR CHO cells, full-length human LXRβ and SRCP, chemiluminescent signal; read-out: LXRβ PPI
Method: PathHunter NHR CHO cells stably transfected with tagged full-length human LXRβ and a nuclear fusion protein containing Steroid Receptor Co-activator Peptide (SRCP). The full-length human LXRβ was tagged with the ProLink™ component of the DiscoverX Enzyme Fragment Complementation (EFC) system and the SRCP domain is fused to the enzyme acceptor component (EA) expressed in the nucleus. Cells were seeded in a total volume of 20 μL into white walled, 384-well microplates and incubated at 37° C. overnight prior to testing. Assay media contained charcoal-dextran filtered serum to reduce the level of hormones present. Final assay vehicle concentration was 1%. […] Microplates were read following signal generation with a PerkinElmer Envision instrument for chemiluminescent signal detection.

LXRβ, sequence (P55055 whole entry, the tested form may be a part): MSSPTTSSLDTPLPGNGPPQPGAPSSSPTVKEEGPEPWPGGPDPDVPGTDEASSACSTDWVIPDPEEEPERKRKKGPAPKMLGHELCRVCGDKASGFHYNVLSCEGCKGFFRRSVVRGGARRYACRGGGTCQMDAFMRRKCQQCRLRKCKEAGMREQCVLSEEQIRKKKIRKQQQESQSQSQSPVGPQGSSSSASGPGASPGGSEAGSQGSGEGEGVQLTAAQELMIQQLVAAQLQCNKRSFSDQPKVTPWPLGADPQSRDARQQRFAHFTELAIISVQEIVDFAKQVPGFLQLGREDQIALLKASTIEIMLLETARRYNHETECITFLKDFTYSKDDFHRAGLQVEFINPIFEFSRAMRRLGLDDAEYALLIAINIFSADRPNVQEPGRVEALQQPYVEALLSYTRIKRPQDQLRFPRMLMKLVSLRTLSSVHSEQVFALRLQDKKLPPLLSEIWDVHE

SMILES	EC50 [nM]
C[C@H](CCC(=O)N1O[C@H]2C[C@@H]1[C@H](O)[C@@H]2O)[C@H]1CC[C@H]2[C@@H]3CC=C4C[C@@H](O)CC[C@]4(C)[C@H]3CC[C@]12C [Example 54, (R)-1-((1S,4R,5S,6S)-5,6-dihydroxy-2-oxa-3-azabicyclo [2.2.1]heptan-3-yl)-4-((3S,8S,9S,10R,13R,14S,17R)-3-hydroxy-10,13-dimethyl-2,3,4,7,8,9,10,11,12,13,14,15,16,17-tetradecahydro-1H-cyclopenta[a]phenanthren-17-yl) pentan-1-one]	> 10000
C[C@H](CCC(=O)N1O[C@@H]2C[C@H]1[C@@H](O)[C@H]2O)[C@H]1CC[C@H]2[C@@H]3CC=C4C[C@@H](O)CC[C@]4(C)[C@H]3CC[C@]12C [Example 55, (R)-1-((1R,4S,5R,6R)-5,6-dihydroxy-2-oxa-3-azabicyclo[2.2.1]heptan-3-yl)-4-((3S,8S,9S,10R,13R,14S,17R)-3-hydroxy-10,13-dimethyl-2,3,4,7,8,9,10,11,12,13,14,15,16,17-tetradecahydro-1H-cyclopenta[a]phenanthren-17-yl)pentan-1-one]	> 10000
C[C@H](CCC(=O)N1OCC[C@@H]1C)[C@H]1CC[C@H]2[C@@H]3CC=C4C[C@@H](O)CC[C@]4(C)[C@H]3CC[C@]12C [Example 57, (R)-4-((3S,8S,9S,10R,13R,14S,17R)-3-hydroxy-10,13-dimethyl-2,3,4,7,8,9,10,11,12,13,14,15,16,17-tetradecahydro-1H-cyclopenta[a]phenanthren-17-yl)-1-((S)-3-methylisoxazolidin-2-yl)pentan-1-one]	250 to 1000
C[C@H]1CON(C(=O)CC[C@@H](C)[C@H]2CC[C@H]3[C@@H]4CC=C5C[C@@H](O)CC[C@]5(C)[C@H]4CC[C@]23C)C1 [Example 58, (R)-4-((3S,8S,9S,10R,13R,14S,17R)-3-hydroxy-10,13-dimethyl-2,3,4,7,8,9,10,11,12,13,14,15,16,17-tetradecahydro-1H-cyclopenta[a]phenanthren-17-yl)-1-((R)-4-methylisoxazolidin-2-yl)pentan-1-one]	250 to 1000
C[C@@H]1CCN(C(=O)CC[C@@H](C)[C@H]2CC[C@H]3[C@@H]4CC=C5C[C@@H](O)CC[C@]5(C)[C@H]4CC[C@]23C)O1 [Example 59, (R)-4-((3S,8S,9S,10R,13R,14S,17R)-3-hydroxy-10,13-dimethyl-2,3,4,7,8,9,10,11,12,13,14,15,16,17-tetradecahydro-1H-cyclopenta[a]phenanthren-17-yl)-1-((R)-5-methylisoxazolidin-2-yl)pentan-1-one]	250 to 1000
C[C@@H]1CCCN(C(=O)CC[C@@H](C)[C@H]2CC[C@H]3[C@@H]4CC=C5C[C@@H](O)CC[C@]5(C)[C@H]4CC[C@]23C)O1 [Example 60, (R)-4-((3S,8S,9S,10R,13R,14S,17R)-3-hydroxy-10,13-dimethyl-2,3,4,7,8,9,10,11,12,13,14,15,16,17-tetradecahydro-1H-cyclopenta[a]phenanthren-17-yl)-1-((R)-6-methyl-1,2-oxazinan-2-yl)pentan-1-one]	250 to 1000
C[C@H](CCC(=O)N(C)OC1CCCC1)[C@H]1CC[C@H]2[C@@H]3CC=C4C[C@@H](O)CC[C@]4(C)[C@H]3CC[C@]12C [Example 61, (R)-4-((3S,8S,9S,10R,13R,14S,17R)-3-hydroxy-10,13-dimethyl-2,3,4,7,8,9,10,11,12,13,14,15,16,17-tetradecahydro-1H-cyclopenta[a]phenanthren-17-yl)-N-(methyl)-N-cyclopentoxypentanamide]	1000 to 10000
CON(CC(=O)OC(C)(C)C)C(=O)CC[C@@H](C)[C@H]1CC[C@H]2[C@@H]3CC=C4C[C@@H](O)CC[C@]4(C)[C@H]3CC[C@]12C [Example 75, tert-butyl N—((R)-4-((3S,8S,9S,10R,13R,14S,17R)-3-hydroxy-10,13-dimethyl-2,3,4,7,8,9,10,11,12,13,14,15,16,17-tetradecahydro-1H-cyclopenta[a]phenanthren-17-yl)pentanoyl)-N-methoxyglycinate]	250 to 1000
